Laboratory results reported in ChEMBL document CHEMBL4004803, “Syntheses and antibacterial activity of soluble 9-bromo substituted indolizinoquinoline-5,12-dione derivatives” (Eur J Med Chem, 2017).
Values after ≈ are worked out from the molar mass of the structure shown.

Assays:
Format in all cases: functional
[1] = test system: Escherichia coli; experiment: Antibacterial activity against Escherichia coli ATCC 25922 after 20 to 24 hrs by two-fold microdilution method
[2] = test system: Staphylococcus aureus; experiment: Antibacterial activity against […] Staphylococcus aureus ATCC 25923 after 20 to 24 hrs by two-fold microdilution method
[3] = test system: Staphylococcus aureus; experiment: Antibacterial activity against methicillin-resistant Staphylococcus aureus ATCC 43300 after 20 to 24 hrs by two-fold microdilution method
[4] = test system: Staphylococcus haemolyticus; experiment: Antibacterial activity against Staphylococcus haemolyticus CICC 10373 after 20 to 24 hrs by two-fold microdilution method
[5] = test system: Staphylococcus epidermidis; experiment: Antibacterial activity against Staphylococcus epidermidis ATCC 12228 after 20 to 24 hrs by two-fold microdilution method
[6] = test system: Staphylococcus aureus; experiment: Antibacterial activity against methicillin-resistant Staphylococcus aureus 202045 clinical isolate after 20 to 24 hrs by two-fold microdilution method
[7] = test system: Staphylococcus aureus; experiment: Antibacterial activity against methicillin-resistant Staphylococcus aureus 122045 clinical isolate after 20 to 24 hrs by two-fold microdilution method
[8] = test system: Staphylococcus aureus; experiment: Antibacterial activity against methicillin-resistant Staphylococcus aureus 212014 clinical isolate after 20 to 24 hrs by two-fold microdilution method
[9] = test system: Staphylococcus aureus; experiment: Antibacterial activity against methicillin-resistant Staphylococcus aureus 305026 clinical isolate after 20 to 24 hrs by two-fold microdilution method
[10] = test system: Staphylococcus aureus; experiment: Antibacterial activity against methicillin-resistant Staphylococcus aureus 103054 clinical isolate after 20 to 24 hrs by two-fold microdilution method
[11] = test system: Staphylococcus aureus; experiment: Antibacterial activity against methicillin-resistant Staphylococcus aureus 1029025 clinical isolate after 20 to 24 hrs by two-fold microdilution method
[12] = test system: Staphylococcus aureus; experiment: Antibacterial activity against methicillin-resistant Staphylococcus aureus 120827 clinical isolate after 20 to 24 hrs by two-fold microdilution method
[13] = test system: Staphylococcus aureus; experiment: Antibacterial activity against methicillin-resistant Staphylococcus aureus 110834 clinical isolate after 20 to 24 hrs by two-fold microdilution method
[14] = test system: Staphylococcus aureus; experiment: Antibacterial activity against methicillin-resistant Staphylococcus aureus GLH14 clinical isolate after 20 to 24 hrs by two-fold microdilution method
[15] = test system: Staphylococcus aureus; experiment: Antibacterial activity against methicillin-resistant Staphylococcus aureus GLH15 clinical isolate after 20 to 24 hrs by two-fold microdilution method
[16] = test system: Staphylococcus aureus; experiment: Antibacterial activity against methicillin-resistant Staphylococcus aureus 122710-2 clinical isolate after 20 to 24 hrs by two-fold microdilution method
[17] = test system: Staphylococcus aureus; experiment: Antibacterial activity against methicillin-resistant Staphylococcus aureus 122820-2 clinical isolate after 20 to 24 hrs by two-fold microdilution method
[18] = test system: Staphylococcus aureus; experiment: Antibacterial activity against methicillin-resistant Staphylococcus aureus 123152 clinical isolate after 20 to 24 hrs by two-fold microdilution method
[19] = test system: Staphylococcus aureus; experiment: Antibacterial activity against methicillin-resistant Staphylococcus aureus 11819 clinical isolate after 20 to 24 hrs by two-fold microdilution method
[20] = test system: Staphylococcus aureus; experiment: Antibacterial activity against methicillin-resistant Staphylococcus aureus 20534 clinical isolate after 20 to 24 hrs by two-fold microdilution method
[21] = test system: Staphylococcus aureus; experiment: Antibacterial activity against methicillin-resistant Staphylococcus aureus 224001 clinical isolate after 20 to 24 hrs by two-fold microdilution method
[22] = test system: Staphylococcus aureus; experiment: Antibacterial activity against methicillin-resistant Staphylococcus aureus 316038 clinical isolate after 20 to 24 hrs by two-fold microdilution method
[23] = test system: Staphylococcus aureus; experiment: Antibacterial activity against methicillin-resistant Staphylococcus aureus 518036 clinical isolate after 20 to 24 hrs by two-fold microdilution method
[24] = test system: Staphylococcus aureus; experiment: Antibacterial activity against methicillin-resistant Staphylococcus aureus 519030 clinical isolate after 20 to 24 hrs by two-fold microdilution method
[25] = test system: Staphylococcus aureus; experiment: Antibacterial activity against methicillin-resistant Staphylococcus aureus 531026 clinical isolate after 20 to 24 hrs by two-fold microdilution method
[26] = test system: Staphylococcus aureus; experiment: Antibacterial activity against methicillin-resistant Staphylococcus aureus 614019 clinical isolate after 20 to 24 hrs by two-fold microdilution method
[27] = test system: Staphylococcus aureus; experiment: Antibacterial activity against methicillin-resistant Staphylococcus aureus 503025 clinical isolate after 20 to 24 hrs by two-fold microdilution method
[28] = test system: Staphylococcus aureus; experiment: Antibacterial activity against methicillin-resistant Staphylococcus aureus 724244 clinical isolate after 20 to 24 hrs by two-fold microdilution method
[29] = test system: Staphylococcus aureus; experiment: Antibacterial activity against methicillin-resistant Staphylococcus aureus 829034 clinical isolate after 20 to 24 hrs by two-fold microdilution method
[30] = test system: Staphylococcus aureus; experiment: Antibacterial activity against methicillin-resistant Staphylococcus aureus 908046 clinical isolate after 20 to 24 hrs by two-fold microdilution method
[31] = test system: Staphylococcus aureus; experiment: Antibacterial activity against methicillin-resistant Staphylococcus aureus 1012039 clinical isolate after 20 to 24 hrs by two-fold microdilution method
[32] = test system: Staphylococcus aureus; experiment: Antibacterial activity against methicillin-resistant Staphylococcus aureus 1026021 clinical isolate after 20 to 24 hrs by two-fold microdilution method
[33] = test system: Staphylococcus aureus; experiment: Antibacterial activity against methicillin-resistant Staphylococcus aureus 1025022 clinical isolate after 20 to 24 hrs by two-fold microdilution method
[34] = test system: Staphylococcus aureus; experiment: Antibacterial activity against methicillin-resistant Staphylococcus aureus 1024004-2 clinical isolate after 20 to 24 hrs by two-fold microdilution method
[35] = test system: Staphylococcus aureus; experiment: Antibacterial activity against methicillin-resistant Staphylococcus aureus 1026211 clinical isolate after 20 to 24 hrs by two-fold microdilution method
[36] = test system: Staphylococcus aureus; experiment: Antibacterial activity against methicillin-resistant Staphylococcus aureus 1211026 clinical isolate after 20 to 24 hrs by two-fold microdilution method
[37] = test system: Staphylococcus aureus; experiment: Antibacterial activity against methicillin-resistant Staphylococcus aureus 1212221 clinical isolate after 20 to 24 hrs by two-fold microdilution method
[38] = test system: Staphylococcus aureus; experiment: Antibacterial activity against methicillin-resistant Staphylococcus aureus 1103006 clinical isolate after 20 to 24 hrs by two-fold microdilution method
[39] = test system: Staphylococcus aureus; experiment: Antibacterial activity against methicillin-resistant Staphylococcus aureus 1107027 clinical isolate after 20 to 24 hrs by two-fold microdilution method
[40] = test system: Staphylococcus aureus; experiment: Antibacterial activity against methicillin-resistant Staphylococcus aureus 1111047-1 clinical isolate after 20 to 24 hrs by two-fold microdilution method
[41] = test system: Staphylococcus aureus; experiment: Antibacterial activity against methicillin-resistant Staphylococcus aureus 1128040 clinical isolate after 20 to 24 hrs by two-fold microdilution method
[42] = test system: Staphylococcus aureus; experiment: Antibacterial activity against methicillin-resistant Staphylococcus aureus 1212057-1 clinical isolate after 20 to 24 hrs by two-fold microdilution method
[43] = test system: Staphylococcus aureus; experiment: Antibacterial activity against methicillin-resistant Staphylococcus aureus 1214023 clinical isolate after 20 to 24 hrs by two-fold microdilution method
[44] = test system: Staphylococcus aureus; experiment: Antibacterial activity against methicillin-resistant Staphylococcus aureus 1216052 clinical isolate after 20 to 24 hrs by two-fold microdilution method
[45] = test system: Staphylococcus aureus; experiment: Antibacterial activity against methicillin-resistant Staphylococcus aureus 10844 clinical isolate after 20 to 24 hrs by two-fold microdilution method
[46] = test system: Staphylococcus aureus; experiment: Antibacterial activity against methicillin-resistant Staphylococcus aureus 112047 clinical isolate after 20 to 24 hrs by two-fold microdilution method
[47] = test system: Staphylococcus aureus; experiment: Antibacterial activity against methicillin-resistant Staphylococcus aureus 125025 clinical isolate after 20 to 24 hrs by two-fold microdilution method

O=C1c2cccnc2C(=O)c2c1c(C(=O)OCCCCN1CCOCC1)c1ccc(Br)cn21
MIC [1]: > 16 µg/mL | MIC [2]: 0.063 µg/mL (≈ 0.123 µM) | MIC [3]: 0.063 µg/mL (≈ 0.123 µM) | MIC [4]: 0.125 µg/mL (≈ 0.244 µM) | MIC [5]: ≤ 0.0078 µg/mL | MIC [6]: 0.25 µg/mL (≈ 0.488 µM) | MIC [7]: 0.125 µg/mL (≈ 0.244 µM) | MIC [8]: 0.125 µg/mL (≈ 0.244 µM) | MIC [9]: 0.125 µg/mL (≈ 0.244 µM) | MIC [10]: 0.5 µg/mL (≈ 0.976 µM) | MIC [11]: 0.5 µg/mL (≈ 0.976 µM) | MIC [12]: 0.25 µg/mL (≈ 0.488 µM) | MIC [13]: 0.25 µg/mL (≈ 0.488 µM) | MIC [14]: 0.5 µg/mL (≈ 0.976 µM) | MIC [15]: 0.25 µg/mL (≈ 0.488 µM) | MIC [16]: 0.25 µg/mL (≈ 0.488 µM) | MIC [17]: 0.125 µg/mL (≈ 0.244 µM) | MIC [18]: 0.25 µg/mL (≈ 0.488 µM) | MIC [19]: 0.125 µg/mL (≈ 0.244 µM) | MIC [20]: 1 µg/mL (≈ 1.95 µM) | MIC [21]: 1 µg/mL (≈ 1.95 µM) | MIC [22]: 0.25 µg/mL (≈ 0.488 µM) | MIC [23]: 0.5 µg/mL (≈ 0.976 µM) | MIC [24]: 1 µg/mL (≈ 1.95 µM) | MIC [25]: 0.25 µg/mL (≈ 0.488 µM) | MIC [26]: 0.5 µg/mL (≈ 0.976 µM) | MIC [27]: 1 µg/mL (≈ 1.95 µM) | MIC [28]: 0.125 µg/mL (≈ 0.244 µM) | MIC [29]: 0.5 µg/mL (≈ 0.976 µM) | MIC [30]: 0.125 µg/mL (≈ 0.244 µM) | MIC [31]: 0.5 µg/mL (≈ 0.976 µM) | MIC [32]: 16 µg/mL (≈ 31.2 µM) | MIC [33]: 0.125 µg/mL (≈ 0.244 µM) | MIC [34]: 0.5 µg/mL (≈ 0.976 µM) | MIC [35]: 0.063 µg/mL (≈ 0.123 µM) | MIC [36]: 0.125 µg/mL (≈ 0.244 µM) | MIC [37]: 0.125 µg/mL (≈ 0.244 µM) | MIC [38]: > 16 µg/mL | MIC [39]: 0.25 µg/mL (≈ 0.488 µM) | MIC [40]: 1 µg/mL (≈ 1.95 µM) | MIC [41]: 0.25 µg/mL (≈ 0.488 µM) | MIC [42]: 0.25 µg/mL (≈ 0.488 µM) | MIC [43]: 0.031 µg/mL (≈ 0.0605 µM) | MIC [44]: 8 µg/mL (≈ 15.6 µM) | MIC [45]: 0.5 µg/mL (≈ 0.976 µM) | MIC [46]: 0.25 µg/mL (≈ 0.488 µM) | MIC [47]: 0.25 µg/mL (≈ 0.488 µM)

O=C1c2cccnc2C(=O)c2c1c(C(=O)OCCCCCN1CCOCC1)c1ccc(Br)cn21
MIC [1]: 8 µg/mL (≈ 15.2 µM) | MIC [2]: 0.016 µg/mL (≈ 0.0304 µM) | MIC [3]: 0.031 µg/mL (≈ 0.0589 µM) | MIC [4]: 1 µg/mL (≈ 1.9 µM) | MIC [5]: ≤ 0.0078 µg/mL | MIC [6]: 0.016 µg/mL (≈ 0.0304 µM) | MIC [7]: 0.063 µg/mL (≈ 0.12 µM) | MIC [8]: 0.063 µg/mL (≈ 0.12 µM) | MIC [9]: 0.063 µg/mL (≈ 0.12 µM) | MIC [10]: ≤ 0.0078 µg/mL | MIC [11]: 0.031 µg/mL (≈ 0.0589 µM) | MIC [12]: ≤ 0.0078 µg/mL | MIC [13]: 0.031 µg/mL (≈ 0.0589 µM) | MIC [14]: 0.031 µg/mL (≈ 0.0589 µM) | MIC [15]: 0.031 µg/mL (≈ 0.0589 µM) | MIC [16]: ≤ 0.0078 µg/mL | MIC [17]: 0.031 µg/mL (≈ 0.0589 µM) | MIC [18]: 0.031 µg/mL (≈ 0.0589 µM) | MIC [19]: ≤ 0.0078 µg/mL | MIC [20]: 0.125 µg/mL (≈ 0.237 µM) | MIC [21]: 0.25 µg/mL (≈ 0.475 µM) | MIC [22]: 0.031 µg/mL (≈ 0.0589 µM) | MIC [23]: 0.063 µg/mL (≈ 0.12 µM) | MIC [24]: 0.063 µg/mL (≈ 0.12 µM) | MIC [25]: ≤ 0.0078 µg/mL | MIC [26]: 0.031 µg/mL (≈ 0.0589 µM) | MIC [27]: 0.031 µg/mL (≈ 0.0589 µM) | MIC [28]: ≤ 0.0078 µg/mL | MIC [29]: 0.125 µg/mL (≈ 0.237 µM) | MIC [30]: 0.031 µg/mL (≈ 0.0589 µM) | MIC [31]: 0.125 µg/mL (≈ 0.237 µM) | MIC [32]: 16 µg/mL (≈ 30.4 µM) | MIC [33]: 0.031 µg/mL (≈ 0.0589 µM) | MIC [34]: 0.125 µg/mL (≈ 0.237 µM) | MIC [35]: ≤ 0.0078 µg/mL | MIC [36]: ≤ 0.0078 µg/mL | MIC [37]: 0.031 µg/mL (≈ 0.0589 µM) | MIC [38]: 16 µg/mL (≈ 30.4 µM) | MIC [39]: ≤ 0.0078 µg/mL | MIC [40]: 0.063 µg/mL (≈ 0.12 µM) | MIC [41]: ≤ 0.0078 µg/mL | MIC [42]: ≤ 0.0078 µg/mL | MIC [43]: 0.125 µg/mL (≈ 0.237 µM) | MIC [44]: 16 µg/mL (≈ 30.4 µM) | MIC [45]: ≤ 0.0078 µg/mL | MIC [46]: 0.031 µg/mL (≈ 0.0589 µM) | MIC [47]: ≤ 0.0078 µg/mL
